Source: ChEMBL document CHEMBL5113383, “Application of the All-Hydrocarbon Stapling Technique in the Design of Membrane-Active Peptides” (J Med Chem, 2022)
In brackets after ≈: the same amount, converted by molar mass. Positions of bridges follow the written chain, without caps; N, C: chain ends. Non-standard residues stand in square brackets, D forms with d. Residues, ends and D or L forms follow the SMILES beside them. *: point of attachment. X2 = C[C@@H]1O[C@H](*)[C@@H](O)[C@H](O)[C@@H]1O; X1 = O[C@H]1[C@H](O)[C@@H](*)OC[C@H]1O; R8 = C=CCCCCCC[C@@](C)(N)C(=O)O; R5 = C=CCCC[C@@](C)(N)C(=O)O; S5 = C=CCCC[C@](C)(N)C(=O)O; Nle = CCCC[C@H](N)C(=O)O; Orn = NCCC[C@H](N)C(=O)O

Experiments:
[1] = test system: [Candida] auris; test: Antimicrobial activity against Candida auris 919; assay type: functional; conditions: Candidozyma auris
[2] = test system: Candida tropicalis; test: Antimicrobial activity against Candida tropicalis 895; assay type: functional
[3] = test system: Candida tropicalis; test: Antimicrobial activity against Candida tropicalis ATCC 20026; assay type: functional
[4] = test system: Nakaseomyces glabratus; test: Antimicrobial activity against Candida glabrata 896; assay type: functional
[5] = test system: Candida albicans; test: Antimicrobial activity against Candida albicans SC5314; assay type: functional
[6] = test system: Candida albicans; test: Antimicrobial activity against Candida albicans 904; assay type: functional
[7] = test system: Pichia kudriavzevii; test: Antimicrobial activity against Candida krusei ATCC 2340; assay type: functional
[8] = test system: [Candida] auris; test: Antimicrobial activity against Candida auris 918; assay type: functional; conditions: Candidozyma auris
[9] = test system: Nakaseomyces glabratus; test: Antimicrobial activity against Candida glabrata ATCC 1182; assay type: functional
[10] = test system: Candida parapsilosis; test: Antimicrobial activity against Candida parapsilosis ATCC 22010; assay type: functional; conditions: Lodderomyces parapsilosis
[11] = test system: Candida albicans; test: Antimicrobial activity against Candida albicans 901; assay type: functional
[12] = Hemolytic activity in human erythrocytes incubated for 1 hr; assay type: toxicity, cell-based, Erythrocyte; conditions: for hemolysis at 1 h: read-out: Activity

Compound	HC50 at 1 h [12]	further results
CC[C@H](C)[C@H](NC(=O)[C@H](CCCCN)NC(=O)[C@H](CCCCN)NC(=O)[C@@H](NC(=O)[C@]1(C)CCC/C=C\CCC[C@](C)(NC(C)=O)C(=O)N[C@@H](CC(C)C)C(=O)N[C@@H](Cc2ccccc2)C(=O)N[C@@H](CC(=O)O)C(=O)N1)[C@@H](C)CC)C(=O)N[C@@H](C)C(=O)N[C@@H](CCC(=O)O)C(=O)N[C@@H](CO)C(=O)N[C@@H](Cc1ccccc1)C(N)=O (Ac-[S5]LFD[S5]IKKIAESF-NH2; staple (Z) 1-5)		MIC [1]: > 128 µg/mL; MIC [2]: > 128 µg/mL; MIC [3]: > 128 µg/mL; MIC [4]: > 128 µg/mL; MIC [5]: > 64 µg/mL; MIC [6]: > 128 µg/mL; MIC [7]: > 128 µg/mL; MIC [8]: > 128 µg/mL; MIC [9]: > 128 µg/mL; MIC [10]: 128 µg/mL (≈ 79.9 µM); MIC [11]: 32 µg/mL (≈ 20 µM)
CC[C@H](C)[C@H](NC(=O)CN)C(=O)NCC(=O)N[C@@H](CCCCN)C(=O)N[C@@H](Cc1ccccc1)C(=O)N[C@@H](CC(C)C)C(=O)N[C@@H](Cc1cnc[nH]1)C(=O)N[C@@H](CO)C(=O)N[C@@H](C)C(=O)N[C@@H](CCCCN)C(=O)N[C@@H](CCCCN)C(=O)N[C@@H](Cc1ccccc1)C(=O)NCC(=O)N[C@@H](CCCCN)C(=O)N[C@@H](C)C(=O)N[C@@H](Cc1ccccc1)C(=O)N[C@H](C(=O)NCC(=O)N[C@@]1(C)CCC/C=C\CCC[C@@](C)(C(N)=O)NC(=O)[C@H](CC(N)=O)NC(=O)[C@H](CCSC)NC(=O)[C@H]([C@@H](C)CC)NC1=O)C(C)C (H-GIGKFLHSAKKFGKAFVG[S5]IMN[S5]-NH2; staple (Z) 19-23)		hemolysis at 1 h [12]: 100%
H-GIMSSLMKKLAAHIAK-NH2	> 400 µM	
CC[C@H](C)[C@H](NC(=O)CN)C(=O)N[C@@H](CCSC)C(=O)N[C@@H](CO[C@H]1OC[C@@H](O)[C@@H](O)[C@@H]1O)C(=O)N[C@@H](CO)C(=O)N[C@@H](CC(C)C)C(=O)N[C@@H](CCSC)C(=O)N[C@@H](CCCCN)C(=O)N[C@@H](CCCCN)C(=O)N[C@@H](CC(C)C)C(=O)N[C@@]1(C)CCC/C=C\CCC[C@@](C)(C(=O)N[C@@H](CCCCN)C(N)=O)NC(=O)[C@H]([C@@H](C)CC)NC(=O)[C@H](Cc2cnc[nH]2)NC(=O)[C@H](C)NC1=O (H-GIMS(X1)SLMKKL[S5]AHI[S5]K-NH2; staple (Z) 11-15)	> 400 µM	
CCCC[C@H](NC(=O)[C@H](Cc1cnc[nH]1)NC(=O)[C@H](C)NC(=O)[C@H](CCCC)NC(=O)[C@@H](NC(=O)[C@H](CCCCN)NC(=O)[C@@H]1CCCN1C(=O)[C@H](CC(C)C)NC(=O)[C@@]1(C)CCC/C=C\CCC[C@](C)(NC(=O)[C@H](CO)NC(=O)[C@H](CC(C)C)NC(=O)[C@H](Cc2ccccc2)NC(=O)CN)C(=O)N[C@@H](CC(C)C)C(=O)N[C@@H](CCCCN)C(=O)N[C@@H](CCCCN)C(=O)N1)C(C)C)C(=O)N[C@@H](CCCCN)C(N)=O (H-GFLS[S5]LKK[R5]LPKV[Nle]AH[Nle]K-NH2; staple (Z) 5-9)	14.7 µM	
CCCC[C@@H]1NC(=O)[C@@](C)(NC(=O)[C@H](CCCCN)NC(=O)[C@@H]2CCCN2C(=O)[C@H](CC(C)C)NC(=O)[C@@H](NC(=O)[C@H](CCCCN)NC(=O)[C@H](CCCCN)NC(=O)[C@H](CC(C)C)NC(=O)[C@@H](NC(=O)[C@H](CO)NC(=O)[C@H](CC(C)C)NC(=O)[C@H](Cc2ccccc2)NC(=O)CN)[C@@H](C)CC)C(C)C)CCC/C=C\CCC[C@@](C)(C(=O)N[C@@H](CCCCN)C(N)=O)NC(=O)[C@H](Cc2cnc[nH]2)NC(=O)[C@H](C)NC1=O (H-GFLSILKKVLPK[S5][Nle]AH[S5]K-NH2; staple (Z) 13-17)	18.1 µM	
CC[C@H](C)[C@@H]1NC(=O)[C@H](CCCCN)NC(=O)[C@H](CCCCN)NC(=O)[C@](C)(NC(=O)[C@H](CC(N)=O)NC(=O)[C@@H](N)C(C)C)CCCCCC/C=C\CCC[C@@](C)(C(=O)N[C@H](C(=O)N[C@@H](CCCCN)C(=O)N[C@H](C(=O)N[C@H](C(=O)N[C@@H](CCCCN)C(N)=O)C(C)C)C(C)C)[C@@H](C)CC)NC(=O)[C@H](CCCCN)NC(=O)CNC(=O)[C@H](CC(C)C)NC1=O (H-VN[R8]KKILGK[S5]IKVVK-NH2; staple (Z) 3-10)	100 µM	
CCCC[C@@H]1NC(=O)[C@@](C)(NC(=O)[C@H](CCCCN)NC(=O)[C@@H]2CCCN2C(=O)[C@H](CC(C)C)NC(=O)[C@]2(C)CCC/C=C\CCC[C@](C)(NC(=O)[C@H](CO)NC(=O)[C@H](CC(C)C)NC(=O)[C@H](Cc3ccccc3)NC(=O)CN)C(=O)N[C@@H](CC(C)C)C(=O)N[C@@H](CCCN)C(=O)N[C@@H](CCCCN)C(=O)N2)CCC/C=C\CCC[C@@](C)(C(=O)N[C@@H](CCCCN)C(N)=O)NC(=O)[C@H](Cc2cnc[nH]2)NC(=O)[C@H](C)NC1=O (H-GFLS[S5]L[Orn]K[S5]LPK[S5][Nle]AH[S5]K-NH2; staple (Z) 5-9, 13-17)	13.9 µM	
H-GIGKFLHSAKKFGKAFVGEIMNS-NH2		hemolysis at 1 h [12]: < 2%
CC[C@H](C)[C@H](NC(=O)CN)C(=O)N[C@@H](CCSC)C(=O)N[C@@H](CO[C@H]1O[C@@H](C)[C@@H](O)[C@@H](O)[C@@H]1O)C(=O)N[C@@H](CO)C(=O)N[C@@H](CC(C)C)C(=O)N[C@@H](CCSC)C(=O)N[C@@H](CCCCN)C(=O)N[C@@H](CCCCN)C(=O)N[C@@H](CC(C)C)C(=O)N[C@@]1(C)CCC/C=C\CCC[C@@](C)(C(=O)N[C@@H](CCCCN)C(N)=O)NC(=O)[C@H]([C@@H](C)CC)NC(=O)[C@H](Cc2cnc[nH]2)NC(=O)[C@H](C)NC1=O (H-GIMS(X2)SLMKKL[S5]AHI[S5]K-NH2; staple (Z) 11-15)	> 400 µM	
CCCC[C@H](NC(=O)[C@H](Cc1cnc[nH]1)NC(=O)[C@H](C)NC(=O)[C@H](CCCC)NC(=O)[C@@H](NC(=O)[C@H](CCCCN)NC(=O)[C@@H]1CCCN1C(=O)[C@]1(C)CCC/C=C\CCCCCC[C@@](C)(NC(=O)[C@H](Cc2ccccc2)NC(=O)CN)C(=O)N[C@@H](CO)C(=O)N[C@@H]([C@@H](C)CC)C(=O)N[C@@H](CC(C)C)C(=O)N[C@@H](CCCCN)C(=O)N[C@@H](CCCCN)C(=O)N[C@@H](C(C)C)C(=O)N1)C(C)C)C(=O)N[C@@H](CCCCN)C(N)=O (H-GF[R8]SILKKV[S5]PKV[Nle]AH[Nle]K-NH2; staple (Z) 3-10)	11 µM	
CC[C@H](C)[C@H](NC(=O)[C@]1(C)CCC/C=C\CCC[C@](C)(NC(=O)[C@H](CCCCN)NC(=O)[C@H](CCCCN)NC(=O)[C@H](Cc2c[nH]c3ccccc23)NC(=O)[C@H](CC(N)=O)NC(=O)[C@@H](N)C(C)C)C(=O)N[C@@H](CC(C)C)C(=O)NCC(=O)N[C@@H](CCCCN)C(=O)N1)C(=O)N[C@@H](CCCCN)C(=O)N[C@H](C(=O)N[C@H](C(=O)N[C@@H](CCCCN)C(N)=O)C(C)C)C(C)C (H-VNWKK[S5]LGK[S5]IKVVK-NH2; staple (Z) 6-10)	31.3 µM	
CC[C@H](C)[C@@H]1NC(=O)[C@H](CCCCN)NC(=O)[C@H](CCCCN)NC(=O)[C@](C)(NC(=O)[C@H](CC(N)=O)NC(=O)[C@@H](N)C(C)C)CCCCCC/C=C/CCC[C@@](C)(C(=O)N[C@H](C(=O)N[C@@H](CCCCN)C(=O)N[C@H](C(=O)N[C@H](C(=O)N[C@@H](CCCCN)C(N)=O)C(C)C)C(C)C)[C@@H](C)CC)NC(=O)[C@H](CCCCN)NC(=O)CNC(=O)[C@H](CC(C)C)NC1=O (H-VN[R8]KKILGK[S5]IKVVK-NH2; staple (E) 3-10)	> 100 µM	
CC[C@H](C)[C@H](NC(=O)[C@H](CCCCN)NC(=O)CNC(=O)[C@H](CC(C)C)NC(=O)[C@]1(C)CCC/C=C\CCC[C@](C)(NC(=O)[C@@H](N)C(C)C)C(=O)N[C@@H](Cc2c[nH]c3ccccc23)C(=O)N[C@@H](CCCCN)C(=O)N[C@@H](CCCCN)C(=O)N1)C(=O)N[C@H](C(=O)N[C@@H](CCCCN)C(=O)N[C@H](C(=O)N[C@H](C(=O)N[C@@H](CCCCN)C(N)=O)C(C)C)C(C)C)[C@@H](C)CC (H-V[S5]WKK[S5]LGKIIKVVK-NH2; staple (Z) 2-6)	30 µM	
CCCC[C@H](NC(=O)[C@H](Cc1cnc[nH]1)NC(=O)[C@H](C)NC(=O)[C@H](CCCC)NC(=O)[C@@H](NC(=O)[C@H](CCCCN)NC(=O)[C@@H]1CCCN1C(=O)[C@H](CC(C)C)NC(=O)[C@@H](NC(=O)[C@H](CCCCN)NC(=O)[C@H](CCCCN)NC(=O)[C@H](CC(C)C)NC(=O)[C@@H](NC(=O)[C@H](CO)NC(=O)[C@H](CC(C)C)NC(=O)[C@H](Cc1ccccc1)NC(=O)CN)[C@@H](C)CC)C(C)C)C(C)C)C(=O)N[C@@H](CCCCN)C(N)=O (H-GFLSILKKVLPKV[Nle]AH[Nle]K-NH2)	50 µM	
CC[C@H](C)[C@H](NC(=O)CN)C(=O)NCC(=O)N[C@@H](CCCCN)C(=O)N[C@@H](Cc1ccccc1)C(=O)N[C@@H](CC(C)C)C(=O)N[C@@H](Cc1cnc[nH]1)C(=O)N[C@@H](CO)C(=O)N[C@@H](C)C(=O)N[C@@H](CCCCN)C(=O)N[C@@H](CCCCN)C(=O)N[C@@H](Cc1ccccc1)C(=O)NCC(=O)N[C@@H](CCCCN)C(=O)N[C@@H](C)C(=O)N[C@@H](Cc1ccccc1)C(=O)N[C@@]1(C)CCC/C=C\CCC[C@@](C)(C(=O)N[C@@H](CC(N)=O)C(=O)N[C@@H](CO)C(N)=O)NC(=O)[C@H]([C@@H](C)CC)NC(=O)[C@H](CCC(=O)O)NC(=O)CNC1=O (H-GIGKFLHSAKKFGKAF[S5]GEI[S5]NS-NH2; staple (Z) 17-21)		hemolysis at 1 h [12]: < 10%
CCCC[C@H](NC(=O)[C@H](Cc1cnc[nH]1)NC(=O)[C@H](C)NC(=O)[C@H](CCCC)NC(=O)[C@@H](NC(=O)[C@H](CCCCN)NC(=O)[C@@H]1CCCN1C(=O)[C@]1(C)CCC/C=C/CCCCCC[C@@](C)(NC(=O)[C@H](Cc2ccccc2)NC(=O)CN)C(=O)N[C@@H](CO)C(=O)N[C@@H]([C@@H](C)CC)C(=O)N[C@@H](CC(C)C)C(=O)N[C@@H](CCCCN)C(=O)N[C@@H](CCCCN)C(=O)N[C@@H](C(C)C)C(=O)N1)C(C)C)C(=O)N[C@@H](CCCCN)C(N)=O (H-GF[R8]SILKKV[S5]PKV[Nle]AH[Nle]K-NH2; staple (E) 3-10)	20 µM	
CC[C@H](C)[C@H](NC(=O)[C@H](CCCCN)NC(=O)[C@H](CCCCN)NC(=O)[C@H](Cc1c[nH]c2ccccc12)NC(=O)[C@H](CC(N)=O)NC(=O)[C@@H](N)C(C)C)C(=O)N[C@@H](CC(C)C)C(=O)NCC(=O)N[C@@H](CCCCN)C(=O)N[C@@]1(C)CCC/C=C\CCC[C@@](C)(C(=O)N[C@@H](CCCCN)C(N)=O)NC(=O)[C@H](C(C)C)NC(=O)[C@H](CCCCN)NC(=O)[C@H]([C@@H](C)CC)NC1=O (H-VNWKKILGK[S5]IKV[S5]K-NH2; staple (Z) 10-14)	69 µM	
